Measured values: ChEMBL document CHEMBL1201862, “PubChem BioAssay data set” (2004)
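Interpolation was linear, between the two tested concentrations surrounding the appropriate level; five concentrations were tested over 48 hours in 96-well plates. At the GI50, growth is halved.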 Active and inactive are the calls of the source. No stated cut-off is given here; in the data, active = GI50 up to about 1.1 µM and inactive = higher.

Experiments:
Assay in all cases: NCI-60 cell line screen, 48 h
[1] = system: EKVX
[2] = system: MDA-N
[3] = system: SF-268
[4] = system: MOLT-4
[5] = system: K562
[6] = system: SK-MEL-2
[7] = system: 786-0
[8] = system: DU-145
[9] = system: SN12C
[10] = system: SR
[11] = system: PC-3
[12] = system: SF-295
[13] = system: SK-OV-3
[14] = system: OVCAR-4
[15] = system: HOP-92
[16] = system: OVCAR-8
[17] = system: A498
[18] = system: NCI-H23
[19] = system: HOP-62
[20] = system: OVCAR-3

Measured: GI50

NC(=O)C(=CNC(=S)Nc1ccc(Cl)c(Cl)c1)C(N)=O
inactive: [1] 65.9 µM | [2] 47.4 µM | [3] > 90.8 µM | [4] 48.3 µM | [5] > 70 µM | [6] > 81.3 µM | [7] > 71.1 µM | [8] > 100 µM | [9] > 100 µM | [10] > 71.3 µM | [11] > 66.4 µM | [12] > 85.7 µM | [13] > 78.7 µM | [14] 46 µM | [15] 33.1 µM | [16] > 88.3 µM | [17] > 61.4 µM | [18] > 92.3 µM | [19] > 100 µM | [20] > 100 µM

CNC(=O)OCC1=C(COC(=O)NC)CN(c2ccccc2)C1
inactive: [1] > 100 µM | [2] > 100 µM | [3] > 100 µM | [4] > 100 µM | [5] > 100 µM | [6] > 100 µM | [7] > 100 µM | [8] > 100 µM | [9] > 100 µM | [10] > 100 µM | [11] > 100 µM | [12] > 100 µM | [13] > 100 µM | [14] > 100 µM | [15] > 100 µM | [16] > 100 µM | [17] > 100 µM | [18] > 100 µM | [19] > 100 µM | [20] > 100 µM

Cc1cccc2c1C(=O)[C@](C)([C@]1(C)Nc3cccc(C)c3C1=O)N2
inactive: [1] 23.7 µM | [2] 25 µM | [3] 16.1 µM | [4] 23.3 µM | [5] 30.8 µM | [6] 24 µM | [7] 39.4 µM | [8] 54.1 µM | [9] 29.6 µM | [10] 17.7 µM | [11] 14.4 µM | [12] 20.8 µM | [13] 21.7 µM | [14] 47.6 µM | [15] 27.3 µM | [16] 24 µM | [17] 60.5 µM | [18] 25.6 µM | [19] 23.3 µM | [20] 29.7 µM

C/C=C1/CN2CCC34c5ccccc5N(C)C23C2CC1C4(C(=O)OC)C(OC(C)=O)O2 (stereo not given)
inactive: [1] > 100 µM | [2] > 100 µM | [3] > 100 µM | [4] > 100 µM | [5] > 100 µM | [6] > 100 µM | [7] > 100 µM | [8] > 100 µM | [9] > 100 µM | [10] > 100 µM | [11] > 100 µM | [12] > 100 µM | [13] > 100 µM | [14] > 100 µM | [15] > 100 µM | [16] > 100 µM | [17] > 100 µM | [18] > 100 µM | [19] > 100 µM | [20] > 100 µM

C#CCOC(=O)C(N)CC(N)=O (stereo not given)
inactive: [1] > 100 µM | [2] > 100 µM | [3] > 100 µM | [4] > 100 µM | [5] 21.2 µM | [6] > 100 µM | [7] > 100 µM | [8] > 100 µM | [9] > 100 µM | [10] > 100 µM | [11] > 100 µM | [12] > 100 µM | [13] > 100 µM | [14] > 100 µM | [15] > 100 µM | [16] > 100 µM | [17] > 100 µM | [18] > 100 µM | [19] > 100 µM | [20] > 100 µM
